# Measured values reported in US20140072999A1, “METHODS OF SIMULATING CHEMOTHERAPY FOR A PATIENT” (Precision Therapeutics, Inc., priority 2008, published 2014).
# Assays:
# [1] = test system: tumor cells cultured from primary ovarian cancer specimens; assay: in vitro chemoresponse assay (ChemoFx), AUC7 drug response score; format: cell-based, human; conditions: for share of tumors exhibiting in vitro resistance: AUC7 score >75th rank, patients of the observational study; for AUC (first seven doses) of the 25% of historical dose response curves with the highest scores (resistant cut-off) / AUC (first 7 doses) of the 25% of historical dose response curves with the lowest scores (sensitive cut-off): sum of survival fractions over doses 1-7, more than 2,000 specimens; for AUC (first 7 doses) of the 25% of historical dose response curves with the lowest scores (sensitive cut-off): smaller score = more sensitive
# Protocol: Briefly, in certain embodiments, cohesive multicellular particulates (explants) are prepared from a patient's tissue sample (e.g., a biopsy sample or surgical specimen) using mechanical fragmentation. This mechanical fragmentation of the explant may take place in a medium substantially free of enzymes that are capable of digesting the explant. Some enzymatic digestion may take place in certain embodiments. Generally, the tissue sample is systematically minced using two sterile scalpels in a scissor-like motion, or mechanically equivalent manual or automated opposing incisor blades. This cross-cutting motion creates smooth cut edges on the resulting tissue multicellular particulates. The tumor particulates each measure from about 0.25 to about 1.5 mm^3, for example, about 1 mm^3.
# After the tissue sample has been minced, the particles are plated in culture flasks. The number of explants plated per flask may vary, for example, between one and 25, such as from 5 to 20 explants per flask. For example, about 9 explants may be plated per T-25 flask, and 20 particulates may be plated per T-75 flask. For purposes of illustration, the explants may be evenly distributed across the bottom surface of the flask, followed by initial inversion for about 10-15 minutes. The flask may then be placed in a non-inverted position in a 37° C. CO2 incubator for about […], Flasks are checked regularly for growth and contamination. Over a period of a few weeks a cell monolayer will form. Further, it is believed (without any intention of being bound by the theory) that tumor cells grow out from the multicellular explant prior to stromal cells. Thus, by initially maintaining the tissue cells within the explant and removing the explant at a predetermined time (e.g., at about 10 to about 50 percent confluency, or at about 15 to about 25 percent confluency), growth of the tumor cells (as opposed to stromal cells) into a monolayer is facilitated. In certain embodiments, the tumor explant may be agitated to substantially release tumor cells from the tumor explant, and the released cells cultured to produce a cell culture monolayer. The use of this procedure to form a cell culture monolayer helps maximize the growth of representative tumor cells from the tissue sample.
# A panel of active agents may then be screened using the cultured cells. Generally, the agents are tested against the cultured cells using plates such as microtiter plates. For the chemosensitivity assay, a reproducible number of cells is delivered to a plurality of wells on one or more plates, preferably with an even distribution of cells throughout the wells. For example, cell suspensions are generally formed from the monolayer cells before substantial phenotypic drift of the tumor cell population occurs. The cell suspensions may be, without limitation, about 4,000 to 12,000 cells/ml, or may be about 4,000 to 9,000 cells/ml, or about 7,000 to 9,000 cells/ml. The individual wells for chemoresponse testing are inoculated with the cell suspension, with each well or “segregated site” containing about 10^2 to 10^4 cells. The cells are generally cultured in the segregated sites for about 4 to about 30 hours prior to contact with an agent.
# The efficacy of each agent in the panel is determined against the patient's cultured cells, by determining the viability of the cells (e.g., number of viable cells). For example, at predetermined intervals before, simultaneously with, or beginning immediately after, contact with each agent or combination, an automated cell imaging system may take images of the cells using one or more of visible light, UV light and fluorescent light. Alternatively, the cells may be imaged after about 25 to about 200 hours of contact with each treatment. The cells may be imaged once or multiple times, prior to or during contact with each treatment. Of course, any method for determining the viability of the cells may be used to assess the efficacy of each treatment in vitro. […]
# [2] = test system: FIGO stage III-IV ovarian, fallopian and peritoneal cancer; assay: observational study: progression-free survival by in vitro response, patients treated with carboplatin + paclitaxel after cytoreductive surgery; format: in vivo, human; conditions: patients treated with C+P; for hazard ratio of disease progression, in vitro resistant vs S+I: univariate
# Excerpt: Women with FIGO stage III-IV ovarian, fallopian and peritoneal cancer were enrolled in an observational study and received in vitro chemoresponse testing between 2006 and 2010. Two hundred seventy-six (276) patients treated with carboplatin (C)+paclitaxel (P) following cytoreductive surgery were included in this analysis. Tumor response to C or P was classified into one of three categories according to assay response score: sensitive (S), intermediately sensitive (I), and resistant (R). Patient clinical information and progression-free survival (PFS) were retrospectively collected. Association of assay drug response with […] was analyzed using Kaplan-Meier procedure and Cox regression model.
# [3] = grouped by in vitro response to the named drug
compound,measurement,setting,value
"N.N.O=C([O-])C1(C(=O)[O-])CCC1.[Pt+2] [carboplatin, Carboplatin]",share of tumors exhibiting in vitro resistance,[1],19%
same,AUC (first seven doses) of the 25% of historical dose response curves with the highest scores (resistant cut-off),[1],≥ 5.5
same,AUC (first 7 doses) of the 25% of historical dose response curves with the lowest scores (sensitive cut-off),[1],≤ 4.3
same,"hazard ratio of disease progression, in vitro resistant vs S+I, multivariate analysis",[2]; controlled for clinical covariates,1.71
same,"median PFS, tumors intermediately sensitive (I) in vitro",[2]; [3],16.6 months
same,"median PFS, tumors resistant (R) in vitro",[2]; [3],11.8 months
same,"median PFS, tumors sensitive (S) in vitro",[2]; [3],17.4 months
same,"hazard ratio of disease progression, in vitro resistant vs S+I",[2],1.87
"CC(=O)O[C@H]1C(=O)[C@@]2(C)[C@H]([C@H](OC(=O)c3ccccc3)[C@]3(O)C[C@H](OC(=O)[C@H](O)[C@@H](NC(=O)c4ccccc4)c4ccccc4)C(C)=C1C3(C)C)[C@]1(OC(C)=O)CO[C@@H]1C[C@@H]2O [paclitaxel, Paclitaxel]",share of tumors exhibiting in vitro resistance,[1],22%
same,AUC (first seven doses) of the 25% of historical dose response curves with the highest scores (resistant cut-off),[1],≥ 6.0
same,AUC (first 7 doses) of the 25% of historical dose response curves with the lowest scores (sensitive cut-off),[1],≤ 5.0
same,"hazard ratio of disease progression, in vitro resistant vs S+I",[2],1.43
